These results are taken from PMC5766608, “Target engagement imaging of PARP inhibitors in small-cell lung cancer” (Nature Communications, 2018).

In series [1] the test system is PARP1/2. In words: In vitro binding kinetics by recovery of PARPi-FL binding (flow cytometry). Format: cell-based, human. On the procedure: (§1) Cells were then treated with fluorescent imaging agent PARPi-FL and either imaged via confocal microscopy or measured via flow cytometry. […] Then, cells were trypsinized, subjected to flow cytometry and analyzed for the relative PARPi-FL fluorescence signal. […] Error bars represent the SD of three independent experiments with three parallels each
(§2) After the respective treatment/staining, which is described below for the different experiments, cells were washed in PBS, trypsinized, washed with flow buffer (1% BSA (w/v) in PBS), transferred to 5 mL flow cytometry tubes through the 40 µm cell strainer cap and left on ice until measurement in the flow cytometer (Fortessa II). Raw data were processed in FlowJo software in order to calculate PARPi-FL uptake per cell. Dead cells were excluded by eliminating DAPI positive cells from the analysis (Supplementary Fig. 8). Cell clumps and debris were eliminated using the corresponding gates (forward and side scatter) for the unstained cell population. PARPi-FL fluorescence was imaged in the FITC channel against side scatter (area).
We furthermore determined the duration of PARPi binding to their target site. […] Then, cells were subjected to flow cytometry as described above. […] We determined the duration of binding of the PARPi indirectly by calculating the recovery of PARP-FL binding with increasing times between PARPi and PARPi-FL treatment. Decay curves were calculated with Prism using two phase decay least squares regression.
On the technique in general: Flow cytometry measures light scatter and fluorescence of single cells or particles in a stream.

The subject of series [2] is PARP1/2. In words: Blocking of PARPi-FL uptake by PARP inhibitors (confocal microscopy, flow cytometry). The series is classed as cell-based, human. Conditions: JHU-LX22 cells; for Blocking of PARPi-FL uptake / target engagement, in words: pretreatment with inhibitor, then PARPi-FL; for Blocking of PARPi-FL uptake: pretreatment with PARP inhibitor 25 min, then PARPi-FL 15 min. As for the experimental part:
as §1
We conducted confocal laser scanning microscopy to visualize the extent of intracellular blocking of PARPi-FL uptake by different PARPi. […] PARPi-FL was removed and cells were washed in fresh medium for 10 min. Next, cells were treated with 4% Paraformaldehyde (PFA) for 8 min on ice to ensure fixation. […] PARPi-FL intensity was determined by measuring the PARPi-FL fluorescence intensity in all nuclei, which were thresholded using Hoechst staining.
as §2
Controls (cells incubated with medium instead of a PARP inhibitor) served as reference value and their PARPi-FL signal was defined as 100%.
To quantify the extent of blocking of PARPi-FL uptake by different PARPi, we quantified the intracellular PARPi-FL uptake in JHU-LX22 cells after incubation with PARP inhibitors.

The test system of the next series is JHU-LX22 cells. The series is described as follows: Cytotoxicity, Alamar Blue assay. The series is classed as cell-based, human. Conditions: 24-96 h. On the procedure: […]. Cells were plated in 96-well plates (black, clear-bottom, Corning Incorporated) at a density of 5,000 cells/well and allowed them to attach for 24 h. All compounds were prepared as 10 mM stock solutions in DMSO and further diluted in media. Cells were treated with 0, 2, 5, and 10 µM (final solutions containing 1% DMSO) of each compound for 24, 48, 72 and 96 h. Then, media was removed and Alamar Blue reagent was added to each well. Plates were incubated at 37 °C for 4 h under protection from direct light. Fluorescence was read (bottom-read mode) using an excitation wavelength of 570 nm and an emission wavelength of 585 nm on a SpectraMax M5 microplate reader (Molecular Devices, Sunnyvale, CA, USA). The average reading values were analyzed by subtracting the background readings (wells with Alamar Blue but without cells) and compared against the untreated controls of each plate (defined as 100% viability) to determine the percentage of living cells. The experiment was carried out in three biological replicates with four parallels of each compound.
Supplementary Figure 9 | In vitro toxicity of the tested PARP inhibitors and imaging tracers on JHU-LX22 cells. (a) Assessment of viable cell population during flow cytometry after a 2 hour incubation time of several PARP inhibitors at concentrations between 0 and 5 µM. (b) Cell viability determination using Alamar Blue assays. Cells were incubated with 0, 0.2, 2, 5 or 10 µM of each compound for 24, 48, 72 or 96 h and cell viability was assessed using the Alamar Blue assay. (c) IC values derived from Alamar Blue assays at 72 h and 96 h.
Viability data represent means from three independent experiments, each with four parallels of each sample. Error bars represent the standard error (SEM). […]

Series [3] has as its system PARP1/2. The series is described as follows: Ex vivo autoradiography of target engagement. Conditions: olaparib 50 mg/kg, talazoparib 0.3 mg/kg, 30 min prior to tracer; tumor collected 2 h post tracer.
Excerpt: Sections from 3 different tumor areas from each tumor (n = 3/group) were exposed to an autoradiography plate overnight and read the next day. ImageJ was used to quantify the signal intensity of each tissue. Adjacent sections were used for PARP1 IHC and H&E staining to confirm tissue identity and PARP1 expression.
Series [4] relates to PARP1/2. Conditions: olaparib 50 mg/kg, talazoparib 0.3 mg/kg i.v., 60 min between drug and tracer.
Description: (§3) All PET/CT images (n = 90) were acquired on an Inveon PET/CT (Siemens) and reconstructed scans were analyzed using the Inveon Research Workplace Software (Siemens). To acquire PET/CT images, animals were anesthetized with 2% isoflurane and positioned on the scanner bed. […] PET data were collected for 5–10 min, followed by CT.
Activity concentration was quantified by averaging the mean values taken from VOIs drawn over the entire tumor as it appeared in the CT and portrayed as a mean %ID/g ± SD.
Another series concerns PARylation in LX22 cells. The series is described as follows: PARylation inhibition assay (western blot for PAR). Format: cell-based, human. Particulars: 0.1 µM, 30 min incubation. As for the experimental part:
Whole cell lysates were prepared by incubating cells with RIPA Buffer with Triton X (BP-140, Boston BioProducts) containing Protease Inhibitor (Complete EASYpacks, Sigma-Aldrich) for 30 min on ice, followed by 30 min centrifugation at 10,000 × g for 30 min at 4 °C. Protein concentration of lysates was determined using a Bicinchoninic acid (BCA) assay kit (#23225, Pierce) and following the manufacturers instructions. SDS gel electrophoresis and immunoblotting were carried out following standard procedures. Signal detection was carried out using chemiluminescent substrate (#34077, Thermo Scientific). Densitometric analysis of western blots was carried out using ImageJ (NIH). To detect PAR, we used a rabbit polyclonal anti-PAR polymer antibody (1:1000 dilution, #4336-BPC-100, Trevigen) followed by a goat anti-rabbit IgG-HRP secondary antibody (1:10,000 dilution, sc-2004, SantaCruz). B-actin was used as loading control (1:1000 dilution, A3854, Sigma-Aldrich) and was stained after stripping the blot for 30 min at room temperature using stripping buffer (Amresco).
Supplementary Figure 3 | PARylation inhibition assay.
PARPi-FL and [18F]PARPi quantify PARP inhibition, we compared their ability to inhibit PARylation
in comparison with olaparib.
inhibition. At 1 µM, the PAR signal for all three compounds is nearly completely eliminated.
On the technique in general: Immunoblotting shows a protein as a band on a membrane.

The test system of series [5] is PARP1/2. Particulars: for Blocking of [18F]PARPi tumor uptake (target engagement): 30 min before tracer, PET 2 h later. The text has this: Fig. 7 Variable dose blocking.
The control group received no therapeutic inhibitor.

Series [6] has as its system JHU-LX48 SCLC PDX. In words: PET/CT imaging agent kinetics. Format: in vivo, NSG mice. Particulars: i.v., JHU-LX48 PDX mice. The text has this:
Error bars represent the SD
Different mice were used for each group to eliminate, as much as possible, the influence of anesthesia on tracer distribution.

Another series deals with T1, PARP2 (Homo sapiens, UniProt Q9UGN5).
T1 construct: purchased BPS Bioscience, San Diego, CA
T1 sequence (Q9UGN5 whole entry): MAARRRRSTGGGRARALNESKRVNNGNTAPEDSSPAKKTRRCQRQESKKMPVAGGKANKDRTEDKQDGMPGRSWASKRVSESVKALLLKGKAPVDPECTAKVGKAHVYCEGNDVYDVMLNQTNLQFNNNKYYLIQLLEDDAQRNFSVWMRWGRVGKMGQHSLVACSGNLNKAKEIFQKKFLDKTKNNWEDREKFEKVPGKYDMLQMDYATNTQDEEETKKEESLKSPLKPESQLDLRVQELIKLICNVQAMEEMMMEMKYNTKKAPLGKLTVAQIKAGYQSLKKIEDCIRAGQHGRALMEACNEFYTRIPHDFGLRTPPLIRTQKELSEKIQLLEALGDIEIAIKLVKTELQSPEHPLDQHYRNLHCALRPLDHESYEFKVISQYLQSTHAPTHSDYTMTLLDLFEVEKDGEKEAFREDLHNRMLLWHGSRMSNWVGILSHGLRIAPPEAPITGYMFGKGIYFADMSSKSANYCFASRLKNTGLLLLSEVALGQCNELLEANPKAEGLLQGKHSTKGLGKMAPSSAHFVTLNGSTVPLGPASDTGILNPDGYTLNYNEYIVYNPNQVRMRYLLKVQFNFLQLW
The series is described as follows: PARP2 IC50 assay (BPS Bioscience, Strep-HRP, histone substrate). Particulars: footnote a: see Supplementary Fig. 2. The series is classed as biochemical. As for the experimental part:
Assays were performed by BPS Bioscience, San Diego, CA. […] Data was reported by BPS a`s % enzyme activity curve from 0.03 nM or 0.1 nM to 1000 nM.

Series [7] relates to JHU-LX48 SCLC PDX. In words: PET/CT tumor size study.
Description: PET/CT imaging was performed once a week over 8 consecutive weeks starting one week after xenografting. a Representative MIPs from the same mouse over 8 weeks. b Quantification (n = 6) of mean uptake (top) and max uptake (bottom) of the PET images grouped by tumor size.
as §3
This was continued for 8 consecutive weeks until mice were sacrificed to avoid surpassing a tumor size limit of 1500 mm^3. Activity concentration was quantified by averaging the mean or max values taken from VOIs drawn over the entire tumor as it appeared in the CT and portrayed as mean and max %ID/g ± SD.
Another series deals with T2, PARP1 (Homo sapiens, UniProt P09874).
T2 construct: purchased BPS Bioscience, San Diego, CA
T2 sequence (P09874 whole entry): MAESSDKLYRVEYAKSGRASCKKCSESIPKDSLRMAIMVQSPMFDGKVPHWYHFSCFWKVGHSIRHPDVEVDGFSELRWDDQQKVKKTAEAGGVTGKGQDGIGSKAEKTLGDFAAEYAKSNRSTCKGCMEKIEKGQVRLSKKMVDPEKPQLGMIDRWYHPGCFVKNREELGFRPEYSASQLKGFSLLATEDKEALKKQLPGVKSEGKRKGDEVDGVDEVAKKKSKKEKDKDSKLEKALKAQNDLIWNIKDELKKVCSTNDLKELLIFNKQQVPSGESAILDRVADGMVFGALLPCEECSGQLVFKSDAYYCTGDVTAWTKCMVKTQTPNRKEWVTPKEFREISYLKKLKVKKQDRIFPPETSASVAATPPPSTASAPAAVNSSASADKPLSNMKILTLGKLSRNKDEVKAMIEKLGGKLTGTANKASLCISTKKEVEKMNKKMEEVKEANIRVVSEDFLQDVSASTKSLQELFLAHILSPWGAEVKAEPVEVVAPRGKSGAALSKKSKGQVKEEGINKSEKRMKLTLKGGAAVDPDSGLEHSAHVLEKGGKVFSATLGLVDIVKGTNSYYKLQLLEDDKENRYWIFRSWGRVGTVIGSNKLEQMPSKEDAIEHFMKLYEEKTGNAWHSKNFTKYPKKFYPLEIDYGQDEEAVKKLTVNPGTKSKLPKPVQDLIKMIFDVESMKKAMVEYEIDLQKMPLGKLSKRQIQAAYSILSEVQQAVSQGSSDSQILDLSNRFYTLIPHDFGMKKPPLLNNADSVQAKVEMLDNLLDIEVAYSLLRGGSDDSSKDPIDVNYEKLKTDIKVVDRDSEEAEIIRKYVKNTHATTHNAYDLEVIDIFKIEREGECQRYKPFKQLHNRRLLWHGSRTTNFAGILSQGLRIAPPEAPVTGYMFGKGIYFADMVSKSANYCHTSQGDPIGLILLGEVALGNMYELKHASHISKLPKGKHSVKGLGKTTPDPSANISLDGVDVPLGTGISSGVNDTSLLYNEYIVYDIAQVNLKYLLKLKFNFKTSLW
Particulars: cited from earlier work.

Setting [8] is: JHU-LX22 cells, 0.2 µM inhibitor 25 min, washed, 0-48 h post-incubation, two phase decay fit.

Read-outs that look alike come from different tables or passages of the source.

Regarding `CNCc1ccc(-c2[nH]c3cc(F)cc4c3c2CCNC4=O)cc1` [Rucaparib, rucaparib], the “Retention on PARP1/2 binding sites, in words” value (from here on “Retention”) in the series on PARP1/2 [1] (setting [8]) is “longest retention”. The “Blocking of PARPi-FL uptake / target engagement, in words” value in the series on PARP1/2 [2] was “most complete target engagement”.
For the molecule `NC(=O)c1ccc(I)c([N+](=O)[O-])c1` [iniparib], the “Blocking of PARPi-FL uptake / target engagement, in words” value in the series on PARP1/2 [2] is given as “failed to reduce PARPi-FL uptake”.
With `NC(=O)c1cccc2cn(-c3ccc([C@@H]4CCCNC4)cc3)nc12` [Niraparib, niraparib], the “Retention” value with PARP1/2 [1] (setting [8]) was “faster release kinetics”. Also, the “Effect on JHU-LX22 cell viability, in words” value with JHU-LX22 cells is listed as “much less cell killing”. Further, in the series with PARP1/2 [2], the “Blocking of PARPi-FL uptake” value is listed as “more than 50%”.
As for `O=C(c1cc(Cc2n[nH]c(=O)c3ccccc23)ccc1F)N1CCN(C(=O)C2CC2)CC1` [Olaparib, olaparib], the “[18F]PARPi tumor uptake blocked (autoradiography)” value in the series with PARP1/2 [3] worked out at 96%. Further, the “Initial blocking (t = 1 h)” value with PARP1/2 [4] and in the series on PARP1/2 [4] (listed as olaparib) was 74% throughout. The “Blocking of PARPi-FL uptake / target engagement, in words” value in the series on PARP1/2 [2] is reported as “most complete target engagement”. For the same molecule, the “Inhibition of PARylation (PAR signal)” value with PARylation in LX22 cells was “nearly complete inhibition”. The “Blocking of [18F]PARPi tumor uptake (target engagement)” value with PARP1/2 [5] (5 mg/kg i.v.) came out at 59%; with PARP1/2 [5] (15 mg/kg i.v.) it was 75%; with PARP1/2 [5] (50 mg/kg i.v.), 78%. In the series with PARP1/2 [5] (single-phase decay curve fit, JHU-LX48 PDX tumor), this molecule gave a 50% blocking dose of 3.17 mg/kg.
The IC50 is the point on the concentration scale where inhibition reaches its midpoint. Low values mean greater potency in that assay, high ones weaker potency in that assay. In the case of `O=C(c1ccc([18F])cc1)N1CCN(C(=O)c2cc(Cc3n[nH]c(=O)c4ccccc34)ccc2F)CC1` [[^18F]PARPi], the entries for the “Muscle uptake (PET)” value in the series on JHU-LX48 SCLC PDX [6] (30 min post injection), in the series on JHU-LX48 SCLC PDX [6] (60 min post injection) and with JHU-LX48 SCLC PDX [6] (120 min post injection) were 0.90 ± 0.06 %ID/g, 0.44 ± 0.03 %ID/g and 0.12 ± 0.02 %ID/g, respectively. For the same molecule, the “Tumor uptake (PET)” value in the series with JHU-LX48 SCLC PDX [6] (30 min post injection) came to 1.34 ± 0.28 %ID/g; in the series with JHU-LX48 SCLC PDX [6] (60 min post injection), 0.94 ± 0.04 %ID/g; with JHU-LX48 SCLC PDX [6] (120 min post injection) it was 0.87 ± 0.21 %ID/g. The molecule further yielded an IC50 at PARP2 of 210 pM. For the same molecule, the Maximum tumor uptake in the series on JHU-LX48 SCLC PDX [7] (tumor sizes 50-100 mm^3) turned out to be 2.62 ± 0.27 %ID/g; with JHU-LX48 SCLC PDX [7] (tumor sizes 50-1300 mm^3), 2.85 ± 0.49 %ID/g; in the series with JHU-LX48 SCLC PDX [7] (tumor sizes 800-1300 mm^3), 3.06 ± 0.61 %ID/g. Besides, the “Mean tumor uptake, highest single value” with JHU-LX48 SCLC PDX [7] (tumor sizes 50-1300 mm^3) amounted to 1.24 %ID/g. Besides, the “Mean tumor uptake, lowest single value” with JHU-LX48 SCLC PDX [7] (tumor sizes 50-1300 mm^3) is on record as 0.47 %ID/g. The Mean tumor uptake with JHU-LX48 SCLC PDX [7] (tumor sizes 50-1300 mm^3, 2 h post injection) is 0.86 ± 0.22 %ID/g; with JHU-LX48 SCLC PDX [7] (tumor sizes between 100 and 200 mm^3), 0.97 ± 0.18 %ID/g; in the series with JHU-LX48 SCLC PDX [7] (tumor sizes between 400 and 800 mm^3) it was 0.71 ± 0.22 %ID/g.
A word on the Ki: it is the dissociation constant of the complex between target and ligand, obtained from inhibition or displacement. For `CN(C)Cc1ccc(-c2nc3cccc4c3n2CCNC4=O)cc1` [AG14361], the Ki on PARP1 is < 5000 pM.
For `C[C@]1(c2nc3c(C(N)=O)cccc3[nH]2)CCCN1` [Veliparib, veliparib], the “Retention” value in the series on PARP1/2 [1] was “faster release kinetics”. Also, the “Effect on JHU-LX22 cell viability, in words” value in the series on JHU-LX22 cells is “much less cell killing”. Moreover, the “Blocking of PARPi-FL uptake” value in the series with PARP1/2 [2] is “more than 50%”.
